Values of other authors in patent EP2739646B1, “COMPREHENSIVE BUFFER SYSTEM FOR RENATURING HUMAN PROINSULIN OR PROINSULIN DERIVATIVES” (Hermann, Stefan, priority 2011, dated 2012).
Read-outs that look alike come from different tables or passages of the source.

Legend:
[1] = not given; remark: listed apart in the source

Row | Structure (SMILES) | pKa (first value listed) | pKa (second value listed) | pKa (third value listed) | water solubility ([1]; at 25°C) [g/100g water] | water solubility ([1]; temperature not given) [g/100ml]
1 | O=C(O)[C@@H]1CCCN1 [proline] | 2.0 | 10.6 |  |  | 
2 | N[C@@H](CS)C(=O)O [cysteine] | 2.05 | 10.25 | 8.00 | > 50 | 
3 | O=C(O)CCCC(=O)O [glutaric acid] |  |  |  |  | 64.0
4 | CCCCC(=O)O [valeric acid] |  |  |  |  | 4.97
5 | C[C@H](N)C(=O)O [alanine] |  |  |  | 16.5 | 
6 | N=C(N)NCCC[C@H](N)C(=O)O [arginine] | 2.01 | 9.4 |  |  | 
